The source of these data is patent US20060094775A1, “Remedy for corneal ulcer” (priority 2003, published 2006).

Entries after “also recorded” stand apart in the source; their conditions may differ.

Assay [1] concerns proMMP-9, MMP-9, proMMP-2 and MMP-2 in rabbit corneal stromal cells. Briefly: Gelatin zymography of culture medium for MMP-2 and MMP-9 forms after three-dimensional culture. Format: cell-based. Conditions: for effect on expression of MMPs and proMMPs (gelatin zymography): plasminogen addition, IL-1β 0.1 ng/ml (Example 2, FIG. 9). The procedure: (§1) Rabbit corneal stromal cells were prepared and cultured according to the description of Mishima et al., Invest. Ophthalmol. Vis. Sci. 28, 1521-6 (1987). The rabbits were sacrificed by overdose of sodium pentobarbital. Eyeballs were enucleated, sclera was incised to remove cornea. Stroma was separated from epithelium and endothelium. Corneal stromal cells were detached from stroma by digesting with collagenase (Collagenase from Clostridium histolyticum, Sigma (U.S.A.) #C-0130) (2 mg/ml) at 37° C. for 3-4 hr. The cells were cultured in MEM supplemented with 10% fetal bovine serum (FBS), grown in an incubator (37° C. humidity 100%) in 5% CO2 and then passaged in MEM containing 10% FBS.
Collagen gel was prepared according to the manual of Nitta gelatin. To be specific, the obtained rabbit corneal stromal cells were washed with PBS(−), 0.05% Trypsin (1 ml) was added thereto, and the mixture was left in a CO2 incubator for several min to detach the cells. MEM (5 ml) containing 10% FBS was added to quench the trypsin reaction. The cell suspension was transferred to a 15 ml centrifuge tube, and centrifuged at 1500 rpm for 5 min. The supernatant was removed and the cells were suspended in a constant amount of serum free MEM. The number of the cells was counted with Burker-Turk hemocytometer (Kayagaki Irika Kogyo). The supernatant was removed by centrifugation at 1500 rpm for 5 min. Serum free MEM was added to give a cell suspension (2200000 cells/ml). A. acid-solubilized Type I collagen (3 mg/ml), B. 5-fold concentration of DMEM, C. reconstruction buffer (0.05N NaOH, 0.26 M NaHCO3, 0.2 M HEPES, pH 7.3) and D. a cell suspension (2.2×10^6 cells/ml) were mixed at a ratio of A:B:C:D=7:2:1:1 while cooling on ice. The collagen solution was placed in a 24 well culture plate at 0.5 ml/well, and stood in an incubator at 37° C. 5% CO2 for 0.5-5 hr. Then, 0.5 ml of serum free MEM containing IL-1β (0.1 ng/mL) and various concentrations of triptolide or dexamethasone was overlaid and cultured for 48 hr. […]

The subject of assay [2] is rabbit corneal stromal cells. The assay is described as follows: Measurement of collagen degradation activity after three-dimensional collagen gel culture (hydroxyproline per well). Format: cell-based. Conditions: IL-1β 0.1 ng/ml, 48 hr three-dimensional culture, various concentrations. On the procedure:
as §1
Collagen gel was prepared according to the manual of Nitta gelatin. To be specific, the obtained rabbit corneal stromal cells were washed with PBS(−), 0.05% Trypsin (1 ml) was added thereto, and the mixture was left in a CO2 incubator for several min to detach the cells. […] The number of the cells was counted with Burker-Turk hemocytometer (Kayagaki Irika Kogyo). […]
After three-dimensional culture, the medium was collected and non-degraded collagen fibril having a molecular weight exceeding 100 kDa was removed by ultrafiltration. […] The amount of the hydroxyproline in the hydrolysate was measured using an Ehrlich's reagent and a spectrophotometer (Bergman et al., Anal. Chem., 35, 1961-5 (1963)). […]

For assay [3], the system named is proMMPs 1 and 3 in human synovial fluid fibroblast. The conditions noted are these: cited from earlier work.
For assay [4], the system named is TIMP-1 production (mRNA) in rabbit corneal stromal cells. Briefly: RT-PCR of TIMP-1 mRNA after three-dimensional culture. The conditions noted are these: IL-1β 0.1 ng/ml; dexamethasone 1 nM, triptolide 3 μM. Format: cell-based. On the procedure:
as §1
Collagen gel was prepared according to the manual of Nitta gelatin. […] The number of the cells was counted with Burker-Turk hemocytometer (Kayagaki Irika Kogyo). […]
After three-dimensional culture, collagenase was added to dissolve the collagen gel, and the cells were collected. […] This cDNA, QuantiTect SYBR Green PCR Master Mix solution (QuantiTect-SYBR Green PCR kit, manufactured by Qiagen, Germany), nuclease free water and rabbit TIMP-1 primer (synthesis at Nippon Gene Institute, Han et al., Nagoya J. Med. Sci. 62, 115-126 (1999)) were mixed, and the expression amount of TIMP-1 mRNA was examined using LightCycler (manufactured by Roche Molecular Biochemicals, Germany).

The test system of assay [5] is glycosylated proMMP-1, proMMP-1, MMP-1, proMMP-3 and MMP-3 in rabbit corneal stromal cells. The assay is described as follows: Western blot of culture medium for MMP-1 and MMP-3 forms after three-dimensional culture. The conditions noted are these: IL-1β addition. Format: cell-based. On the procedure:
as §1
Collagen gel was prepared according to the manual of Nitta gelatin. To be specific, the obtained rabbit corneal stromal cells were washed with PBS(−), 0.05% Trypsin (1 ml) was added thereto, and the mixture was left in a CO2 incubator for several min to detach the cells. MEM (5 ml) containing 10% FBS was added to quench the trypsin reaction. The cell suspension was transferred to a 15 ml centrifuge tube, and centrifuged at 1500 rpm for 5 min. The supernatant was removed and the cells were suspended in a constant amount of serum free MEM. The number of the cells was counted with Burker-Turk hemocytometer (Kayagaki Irika Kogyo). The supernatant was removed by centrifugation at 1500 rpm for 5 min. […]
Background: In western blotting, separated proteins are transferred to a membrane and probed.

In the case of `CC(C)[C@]12O[C@H]1[C@@H]1O[C@@]13[C@@]1(C)CCC4=C(COC4=O)[C@@H]1C[C@@H]1O[C@@]13C2OC(=O)CCC(=O)[O-].[Na+]` (stereo partly drawn) [triptolide succinate sodium salt], the “effect on expression of MMPs and proMMPs (gelatin zymography)” value in assay [1] was “suppresses increase of MMP-2 and activation of MMP-9”. In addition, in assay [2], the “effect on IL-1β induced collagen degradation (amount of degraded collagen as hydroxyproline per well)” value was “suppress IL-1β induced collagen degradation in a concentration dependent manner”.
For `CC(C)[C@]12O[C@H]1[C@@H]1O[C@]13[C@]1(O[C@H]1C[C@H]1C4=C(CC[C@@]13C)C(=O)OC4)[C@@H]2O` [triptolide], the “effect on expression and activation of proMMPs (gelatin zymography)” value in assay [1] (60 mg/ml plasminogen addition, IL-1β addition (Example 1)) is reported as “activation of proMMP-9”. In assay [1], the “effect on expression of MMPs and proMMPs (gelatin zymography)” value is “suppresses increase of proMMP-2 and MMP-2, as well as activation of proMMP-9”. The “effect on production of proMMPs 1 and 3” value in assay [3] was “suppresses production of proMMPs 1 and 3”. The “effect on TIMP-1 production (relative copy number of mRNA)” value in assay [4] was “does not”. For the same compound, the “effect on IL-1β induced collagen degradation (amount of degraded collagen as hydroxyproline per well)” value in assay [2] is reported as “suppress IL-1β induced collagen degradation in a concentration dependent manner; also recorded: suppresses IL-1β induced collagen degradation in a concentration dependent manner”. In assay [5] (60 mg/ml plasminogen addition), the “effect on expression and activation of proMMPs (Western blot)” value is “suppresses increase and activation of glycosylated proMMP-1, proMMP-1 and proMMP-3”. The “effect on expression of proMMPs (Western blot)” value in assay [5] (plasminogen non-addition) is “suppresses increase of glycosylated proMMP-1, proMMP-1 and proMMP-3 induced by IL-1β”.
